# Tested on: RBCs
# Conditions: Table 1, D-Ala scanning of 1a
# Experimental: RBC binding ranked by MESF (molecules of equivalent soluble fluorescence), or intensity of fluorescent signal measured when RBCs were incubated with a given concentration of peptide.
# High=MESF value>1000 fluorescent units
# Medium=MESF Value from 300 to 1000 fluorescent units
# Low=MESF Value from 15 to 300 fluorescent units
row,Substance,Classification of RBC binding properties (MESF)
1,H-phe-trp-his-pro-trp-ala-ala-met-tyr-lys-Gly-Gly-Gly-lys(Biotin)-NH2 [ig],Does Not Bind (MESF Value below 15 fluorescent units)
2,H-phe-trp-his-pro-trp-ala-met-ala-tyr-lys-Gly-Gly-Gly-lys(Biotin)-NH2 [Peptide 1h],Low (MESF Value from 15 to 300 fluorescent units)
3,H-phe-trp-ala-pro-trp-ala-met-met-tyr-lys-Gly-Gly-Gly-lys(Biotin)-NH2 [Peptide 1d],Medium (MESF Value from 300 to 1000 fluorescent units)
4,H-phe-trp-his-ala-trp-ala-met-met-tyr-lys-Gly-Gly-Gly-lys(Biotin)-NH2 [Peptide 1e],High (MESF value>1000 fluorescent units)
5,H-phe-trp-his-pro-trp-ala-met-met-tyr-lys-Gly-Gly-Gly-lys(Biotin)-NH2 [Peptide 1a],High (MESF value>1000 fluorescent units)
6,H-phe-trp-his-pro-trp-ala-met-met-ala-lys-Gly-Gly-Gly-lys(Biotin)-NH2 [Peptide 1i],Low (MESF Value from 15 to 300 fluorescent units)
7,H-phe-ala-his-pro-trp-ala-met-met-tyr-lys-Gly-Gly-Gly-lys(Biotin)-NH2 [Peptide 1c],Does Not Bind (MESF Value below 15 fluorescent units)
8,H-ala-trp-his-pro-trp-ala-met-met-tyr-lys-Gly-Gly-Gly-lys(Biotin)-NH2 [Peptide 1b],Low (MESF Value from 15 to 300 fluorescent units)
9,H-phe-trp-his-pro-trp-ala-met-met-tyr-ala-Gly-Gly-Gly-lys(Biotin)-NH2 [Peptide 1j],High (MESF value>1000 fluorescent units)
10,H-phe-trp-his-pro-ala-ala-met-met-tyr-lys-Gly-Gly-Gly-lys(Biotin)-NH2 [Peptide 1f],Does Not Bind (MESF Value below 15 fluorescent units)

# Same assay, conditions: Table 2, 1a analogs
row,Substance,Classification of RBC binding properties (MESF)
1,H-phe-trp-his-pro-trp-ala-met-met-tyr-lys-Gly-Gly-Gly-cys(trt)-Gly-lys(Biotin)-NH2 [Peptide 2h],Does Not Bind (MESF Value below 15 fluorescent units)
2,H-phe-trp-his-pro-trp-ala-nle-nle-tyr-lys-Gly-Gly-Gly-lys(Biotin)-NH2 [Peptide 2a],Medium (MESF Value from 300 to 1000 fluorescent units)
3,Ac-phe-trp-his-pro-trp-ala-met-met-tyr-lys-Gly-Gly-Gly-lys(Biotin)-NH2 [Peptide 2g],Does Not Bind (MESF Value below 15 fluorescent units)
4,H-phe-trp-his-pro-trp-ala-met-met-tyr-lys-Gly-Gly-Gly-lys(Biotin)-NH2 [Peptide 1a],High (MESF value>1000 fluorescent units)
5,H-phe-trp-his-pro-trp-ala-met-met-tyr-lys-Gly-Gly-Gly-lys(C18diacid)-lys(Biotin)-NH2 [Peptide 2e],Medium (MESF Value from 300 to 1000 fluorescent units)
6,H-phe-trp-his-pro-trp-ala-ala-ala-tyr-lys-Gly-Gly-Gly-lys(Biotin)-NH2 [Peptide 2b],High (MESF value>1000 fluorescent units)
7,H-phe-trp-his-pro-trp-ala-met-met-tyr-lys-Gly-Gly-Gly-(H-phe-trp-his-pro-trp-ala-met-met-tyr-lys-Gly-Gly-Gly)-lys-Gly-Gly-lys(Biotin)-NH2 [Peptide 2d],High (MESF value>1000 fluorescent units)
8,H-phe-trp-tyr-pro-trp-ala-met-met-tyr-lys-Gly-Gly-Gly-lys(Biotin)-NH2 [Peptide 2j],Low (MESF Value from 15 to 300 fluorescent units)
9,H-phe-trp-his-NMeGly-trp-ala-met-met-tyr-lys-Gly-Gly-Gly-lys(Biotin)-NH2 [Peptide 2k],Low (MESF Value from 15 to 300 fluorescent units)
10,H-phe-trp-his-pro-trp-ala-leu-leu-tyr-lys-Gly-Gly-Gly-lys(Biotin)-NH2 [Peptide 2c],Does Not Bind (MESF Value below 15 fluorescent units)
11,H-phe-trp-his-L-Pro-trp-ala-met-met-tyr-lys-Gly-Gly-Gly-lys(Biotin)-NH2 [Peptide 2l],Low (MESF Value from 15 to 300 fluorescent units)
12,H-ala-pro-met-phe-tyr-trp-lys-his-met-trp-Gly-Gly-Gly-lys(Biotin)-NH2 [Peptide 2f],Low (MESF Value from 15 to 300 fluorescent units)
13,H-phe-trp-ser-pro-trp-ala-met-met-tyr-lys-Gly-Gly-Gly-lys(Biotin)-NH2 [Peptide 2i],Low (MESF Value from 15 to 300 fluorescent units)
14,H-phe-trp-his-αMepro-trp-ala-met-met-tyr-lys-Gly-Gly-Gly-lys(Biotin)-NH2 [Peptide 2m],Does Not Bind (MESF Value below 15 fluorescent units)

# Same assay, conditions: Table 3, structurally-diverse all-D-peptides
row,Substance,Classification of RBC binding properties (MESF)
1,H-leu-trp-ser-pro-val-phe-phe-phe-pro-lys-Gly-Gly-Gly-lys(Biotin)-NH2 [Peptide 3n],Does Not Bind (MESF Value below 15 fluorescent units)
2,H-phe-trp-tyr-val-his-thr-thr-Gly-trp-lys-Gly-Gly-Gly-lys(Biotin)-NH2 [Peptide 3j],Does Not Bind (MESF Value below 15 fluorescent units)
3,H-pro-his-his-pro-phe-ala-leu-phe-leu-lys-Gly-Gly-Gly-lys(Biotin)-NH2 [Peptide 3q],Medium (MESF Value from 300 to 1000 fluorescent units)
4,H-pro-phe-tyr-thr-tyr-his-trp-tyr-ser-lys-Gly-Gly-Gly-lys(Biotin)-NH2 [Peptide 3p],Does Not Bind (MESF Value below 15 fluorescent units)
5,H-phe-trp-his-pro-trp-ala-met-met-tyr-lys-Gly-Gly-Gly-lys(Biotin)-NH2 [Peptide 1a],High (MESF value>1000 fluorescent units)
6,H-phe-phe-his-pro-phe-ala-trp-phe-his-lys-Gly-Gly-Gly-lys(Biotin)-NH2 [Peptide 3h],Low (MESF Value from 15 to 300 fluorescent units)
7,H-ser-Gly-val-asp-thr-tyr-leu-thr-his-lys-Gly-Gly-Gly-lys(Biotin)-NH2 [Peptide 3r],Medium (MESF Value from 300 to 1000 fluorescent units)
8,H-tyr-phe-leu-tyr-leu-pro-tyr-his-thr-lys-Gly-Gly-Gly-lys(Biotin)-NH2 [Peptide 3v],Low (MESF Value from 15 to 300 fluorescent units)
9,H-val-phe-his-pro-phe-trp-Gly-tyr-phe-lys-Gly-Gly-Gly-lys(Biotin)-NH2 [Peptide 3s],Does Not Bind (MESF Value below 15 fluorescent units)
10,H-phe-trp-his-pro-trp-phe-phe-lys-thr-lys-Gly-Gly-Gly-lys(Biotin)-NH2 [Peptide 3c],Low (MESF Value from 15 to 300 fluorescent units)
11,H-leu-trp-his-pro-trp-ala-met-pro-glu-lys-Gly-Gly-Gly-lys(Biotin)-NH2 [Peptide 3m],Low (MESF Value from 15 to 300 fluorescent units)
12,H-phe-trp-val-pro-phe-trp-trp-lys-thr-lys-Gly-Gly-Gly-lys(Biotin)-NH2 [Peptide 3d],Low (MESF Value from 15 to 300 fluorescent units)
13,H-met-phe-his-pro-phe-ala-phe-met-tyr-lys-Gly-Gly-Gly-lys(Biotin)-NH2 [Peptide 3o],Medium (MESF Value from 300 to 1000 fluorescent units)
14,H-phe-tyr-tyr-pro-trp-pro-val-thr-tyr-lys-Gly-Gly-Gly-lys(Biotin)-NH2 [Peptide 3k],Does Not Bind (MESF Value below 15 fluorescent units)
15,H-leu-phe-his-pro-trp-pro-ala-phe-pro-lys-Gly-Gly-Gly-lys(Biotin)-NH2 [Peptide 3l],High (MESF value>1000 fluorescent units)
16,H-ser-trp-his-pro-val-trp-Gly-trp-leu-lys-Gly-Gly-Gly-lys(Biotin)-NH2 [Peptide 3g],Low (MESF Value from 15 to 300 fluorescent units)
17,H-trp-tyr-leu-pro-pro-leu-trp-his-ala-lys-Gly-Gly-Gly-lys(Biotin)-NH2 [Peptide 3u],Does Not Bind (MESF Value below 15 fluorescent units)
18,H-trp-val-pro-Gly-phe-trp-tyr-his-tyr-lys-Gly-Gly-Gly-lys(Biotin)-NH2 [Peptide 3t],Low (MESF Value from 15 to 300 fluorescent units)
19,H-phe-phe-his-val-pro-val-phe-ser-val-lys-Gly-Gly-Gly-lys(Biotin)-NH2 [Peptide 3i],Medium (MESF Value from 300 to 1000 fluorescent units)
20,H-tyr-trp-val-pro-met-trp-val-his-val-lys-Gly-Gly-Gly-lys(Biotin)-NH2 [Peptide 3w],Low (MESF Value from 15 to 300 fluorescent units)
21,H-phe-phe-his-pro-trp-ser-trp-thr-ser-lys-Gly-Gly-Gly-lys(Biotin)-NH2 [Peptide 3a],High (MESF value>1000 fluorescent units)
22,H-leu-trp-his-pro-tyr-leu-phe-leu-trp-lys-Gly-Gly-Gly-lys(Biotin)-NH2 [Peptide 3f],Does Not Bind (MESF Value below 15 fluorescent units)
23,H-leu-his-his-pro-trp-pro-tyr-phe-tyr-lys-Gly-Gly-Gly-lys(Biotin)-NH2 [Peptide 3e],Low (MESF Value from 15 to 300 fluorescent units)
24,H-phe-phe-his-pro-tyr-Gly-leu-phe-val-lys-Gly-Gly-Gly-lys(Biotin)-NH2 [Peptide 3b],Medium (MESF Value from 300 to 1000 fluorescent units)

# — US20230173086A1, “PEPTIDE CONJUGATES AND THERAPEUTIC AGENTS HAVING IMPROVED PHARMACOLOGICAL AND PHARMACOKINETIC PROPERTIES” (Resolute Bio, Inc., priority 2021, published 2023)
